Converted amounts (≈) assume the structure as drawn.
Columns and labels:
Type in all cases: functional
Candida tropicalis [1] = assay: Minimum inhibitory concentration against Candida tropicalis 8001 strain
Candida parapsilosis = assay: Minimum inhibitory concentration against Candida parapsilosis 15001 strain; conditions: Lodderomyces parapsilosis
Candida tropicalis [2] = assay: Minimum inhibitory concentration against Candida tropicalis 8002 strain
Candida albicans [3] = assay: Minimum inhibitory concentration against Candida albicans FP633 strain
Mus musculus [4] = species: Mus musculus; assay: Hemolytic ability to hemolyze ICR mouse RBCs in microtiter red blood cell hemolysis assay; set-up: concentration or dose not given beside the values
Candida albicans [5] = assay: Minimum inhibitory concentration against Candida albicans FP579 strain
[6] = tested on: Meyerozyma guilliermondii; assay: Minimum inhibitory concentration against Candida guilliermondii FP587 strain
Mus musculus [7] = assay: In vivo activity in Disseminated Murine Candidiasis Model
Mus musculus [8] = assay: (§1) Ratio of In vivo activity of drug in Disseminated Murine Candidiasis Model to that of In vivo activity of FR-901469 in Disseminated Murine Candidiasis Model
Aspergillus fumigatus = assay: In vitro minimum inhibitory concentration against Aspergillus fumigatus TIMM0063 FPI305 was determined by the broth microdilution method.
[9] = as §1

## CCCCCCCCCCCCC[C@@H]1CC(=O)N[C@H]([C@@H](C)O)C(=O)N[C@H](C)C(=O)N[C@@H](Cc2ccc(O)cc2)C(=O)N[C@@H](C(C)C)C(=O)N2C[C@H](O)C[C@H]2C(=O)N[C@H]([C@@H](C)O)C(=O)N[C@@H]([C@@H](C)O)C(=O)N2CC[C@H](O)[C@H]2C(=O)N[C@@H]([C@H](O)CC(N)=O)C(=O)NCC(=O)N[C@H]([C@@H](C)O)C(=O)N[C@@H](CCCNC(=O)CO)C(=O)O1
Candida tropicalis [1]
  MIC: 1.56 µg/mL (≈ 0.98 µM)
Candida parapsilosis
  MIC: 0.78 µg/mL (≈ 0.49 µM)
Candida tropicalis [2]
  MIC: 0.78 µg/mL (≈ 0.49 µM)
Candida albicans [3]
  MIC: 0.39 µg/mL (≈ 0.245 µM)
Mus musculus [4]
  Hemolysis: 9%
Candida albicans [5]
  MIC: 0.78 µg/mL (≈ 0.49 µM)
[6]
  MIC: 0.39 µg/mL (≈ 0.245 µM)

## CCCCCCCCCCCCC[C@@H]1CC(=O)N[C@H]([C@@H](C)O)C(=O)N[C@H](C)C(=O)N[C@@H](Cc2ccc(O)cc2)C(=O)N[C@@H](C(C)C)C(=O)N2C[C@H](O)C[C@H]2C(=O)N[C@H]([C@@H](C)O)C(=O)N[C@@H]([C@@H](C)O)C(=O)N2CC[C@H](O)[C@H]2C(=O)N[C@@H]([C@H](O)CC(N)=O)C(=O)NCC(=O)N[C@H]([C@@H](C)O)C(=O)N[C@@H](CCCNC(C)=O)C(=O)O1
Mus musculus [7]
  ED50: 4 mg/kg
Candida tropicalis [1]
  MIC: 1.56 µg/mL (≈ 0.99 µM)
Candida parapsilosis
  MIC: 1.56 µg/mL (≈ 0.99 µM)
Candida tropicalis [2]
  MIC: 1.56 µg/mL (≈ 0.99 µM)
Candida albicans [3]
  MIC: 0.39 µg/mL (≈ 0.247 µM)
Mus musculus [8]
  Ratio: 6.2
Mus musculus [4]
  Hemolysis: 5%
Candida albicans [5]
  MIC: 0.78 µg/mL (≈ 0.495 µM)
Aspergillus fumigatus
  MIC: 1 µg/mL (≈ 0.635 µM)
[6]
  MIC: 0.78 µg/mL (≈ 0.495 µM)

## CCCCCCCCCCCCC[C@@H]1CC(=O)N[C@H]([C@@H](C)O)C(=O)N[C@H](C)C(=O)N[C@@H](Cc2ccc(O)cc2)C(=O)N[C@@H](C(C)C)C(=O)N2C[C@H](O)C[C@H]2C(=O)N[C@H]([C@@H](C)O)C(=O)N[C@@H]([C@@H](C)O)C(=O)N2CC[C@H](O)[C@H]2C(=O)N[C@@H]([C@H](O)CC(N)=O)C(=O)NCC(=O)N[C@H]([C@@H](C)O)C(=O)N[C@@H](CCCNC(=O)[C@@H](N)CCCN)C(=O)O1.Cl
Mus musculus [7]
  ED50: 0.54 mg/kg
Candida tropicalis [1]
  MIC: 1.56 µg/mL
Candida parapsilosis
  MIC: 0.39 µg/mL
Candida tropicalis [2]
  MIC: 1.56 µg/mL
Candida albicans [3]
  MIC: 0.39 µg/mL
[9]
  Ratio: 0.8
Mus musculus [4]
  Hemolysis: 20%
Candida albicans [5]
  MIC: 0.78 µg/mL
Aspergillus fumigatus
  MIC: 0.5 µg/mL
[6]
  MIC: 0.39 µg/mL

## CCCCCCCCCCCCC[C@@H]1CC(=O)N[C@H]([C@@H](C)O)C(=O)N[C@H](C)C(=O)N[C@@H](Cc2ccc(O)cc2)C(=O)N[C@@H](C(C)C)C(=O)N2C[C@H](O)C[C@H]2C(=O)N[C@H]([C@@H](C)O)C(=O)N[C@@H]([C@@H](C)O)C(=O)N2CC[C@H](O)[C@H]2C(=O)N[C@@H]([C@H](O)CC(N)=O)C(=O)NCC(=O)N[C@H]([C@@H](C)O)C(=O)N[C@@H](CCCNC(=O)CN)C(=O)O1.Cl
Candida tropicalis [1]
  MIC: 0.78 µg/mL
Candida parapsilosis
  MIC: 0.78 µg/mL
Candida tropicalis [2]
  MIC: 0.78 µg/mL
Candida albicans [3]
  MIC: 0.39 µg/mL
Mus musculus [4]
  Hemolysis: 67%
Candida albicans [5]
  MIC: 0.78 µg/mL
Aspergillus fumigatus
  MIC: 0.5 µg/mL
[6]
  MIC: 0.78 µg/mL

## CCCCCCCCCCCCC[C@@H]1CC(=O)N[C@H]([C@@H](C)O)C(=O)N[C@H](C)C(=O)N[C@@H](Cc2ccc(O)cc2)C(=O)N[C@@H](C(C)C)C(=O)N2C[C@H](O)C[C@H]2C(=O)N[C@H]([C@@H](C)O)C(=O)N[C@@H]([C@@H](C)O)C(=O)N2CC[C@H](O)[C@H]2C(=O)N[C@@H]([C@H](O)CC(N)=O)C(=O)NCC(=O)N[C@H]([C@@H](C)O)C(=O)N[C@@H](CCCNC(=O)[C@@H]2CCN2)C(=O)O1.Cl
Candida tropicalis [1]
  MIC: 0.39 µg/mL
Candida parapsilosis
  MIC: 0.78 µg/mL
Candida tropicalis [2]
  MIC: 0.39 µg/mL
Candida albicans [3]
  MIC: 0.39 µg/mL
Mus musculus [4]
  Hemolysis: 27%
Candida albicans [5]
  MIC: 0.78 µg/mL
[6]
  MIC: 0.78 µg/mL

## CCCCCCCCCCCCC[C@@H]1CC(=O)N[C@H]([C@@H](C)O)C(=O)N[C@H](C)C(=O)N[C@@H](Cc2ccc(O)cc2)C(=O)N[C@@H](C(C)C)C(=O)N2C[C@H](O)C[C@H]2C(=O)N[C@H]([C@@H](C)O)C(=O)N[C@@H]([C@@H](C)O)C(=O)N2CC[C@H](O)[C@H]2C(=O)N[C@@H]([C@H](O)CC(N)=O)C(=O)NCC(=O)N[C@H]([C@@H](C)O)C(=O)N[C@@H](CCCNC(=O)CCCCN)C(=O)O1.Cl
Candida tropicalis [1]
  MIC: 0.78 µg/mL
Candida parapsilosis
  MIC: 0.39 µg/mL
Candida tropicalis [2]
  MIC: 0.78 µg/mL
Candida albicans [3]
  MIC: 0.39 µg/mL
Mus musculus [4]
  Hemolysis: 20%
Candida albicans [5]
  MIC: 0.78 µg/mL
[6]
  MIC: 0.39 µg/mL

## CCCCCCCCCCCCC[C@@H]1CC(=O)N[C@H]([C@@H](C)O)C(=O)N[C@H](C)C(=O)N[C@@H](Cc2ccc(O)cc2)C(=O)N[C@@H](C(C)C)C(=O)N2C[C@H](O)C[C@H]2C(=O)N[C@H]([C@@H](C)O)C(=O)N[C@@H]([C@@H](C)O)C(=O)N2CC[C@H](O)[C@H]2C(=O)N[C@@H]([C@H](O)CC(N)=O)C(=O)NCC(=O)N[C@H]([C@@H](C)O)C(=O)N[C@@H](CCCNC(=O)CCN)C(=O)O1.Cl
Candida tropicalis [1]
  MIC: 0.78 µg/mL
Candida parapsilosis
  MIC: 0.39 µg/mL
Candida tropicalis [2]
  MIC: 0.78 µg/mL
Candida albicans [3]
  MIC: 0.39 µg/mL
Mus musculus [4]
  Hemolysis: 44%
Candida albicans [5]
  MIC: 0.39 µg/mL
[6]
  MIC: 0.39 µg/mL

## CCCCCCCCCCCCC[C@@H]1CC(=O)N[C@H]([C@@H](C)O)C(=O)N[C@H](C)C(=O)N[C@@H](Cc2ccc(O)cc2)C(=O)N[C@@H](C(C)C)C(=O)N2C[C@H](O)C[C@H]2C(=O)N[C@H]([C@@H](C)O)C(=O)N[C@@H]([C@@H](C)O)C(=O)N2CC[C@H](O)[C@H]2C(=O)N[C@@H]([C@H](O)CC(N)=O)C(=O)NCC(=O)N[C@H]([C@@H](C)O)C(=O)N[C@@H](CCCNC(=O)CCCN)C(=O)O1.Cl
Candida tropicalis [1]
  MIC: 1.56 µg/mL
Candida parapsilosis
  MIC: 0.78 µg/mL
Candida tropicalis [2]
  MIC: 0.78 µg/mL
Candida albicans [3]
  MIC: 0.78 µg/mL
Mus musculus [4]
  Hemolysis: 30%
Candida albicans [5]
  MIC: 1.56 µg/mL
[6]
  MIC: 0.78 µg/mL

## CCCCCCCCCCCCC[C@@H]1CC(=O)N[C@H]([C@@H](C)O)C(=O)N[C@H](C)C(=O)N[C@@H](Cc2ccc(O)cc2)C(=O)N[C@@H](C(C)C)C(=O)N2C[C@H](O)C[C@H]2C(=O)N[C@H]([C@@H](C)O)C(=O)N[C@@H]([C@@H](C)O)C(=O)N2CC[C@H](O)[C@H]2C(=O)N[C@@H]([C@H](O)CC(N)=O)C(=O)NCC(=O)N[C@H]([C@@H](C)O)C(=O)N[C@@H](CCCNC(=O)CCCCCN)C(=O)O1.Cl
Candida tropicalis [1]
  MIC: 0.78 µg/mL
Candida parapsilosis
  MIC: 0.39 µg/mL
Candida tropicalis [2]
  MIC: 0.78 µg/mL
Candida albicans [3]
  MIC: 0.39 µg/mL
Mus musculus [4]
  Hemolysis: 14%
Candida albicans [5]
  MIC: 0.78 µg/mL
[6]
  MIC: 0.78 µg/mL

## CCCCCCCCCCCCC[C@@H]1CC(=O)N[C@H]([C@@H](C)O)C(=O)N[C@H](C)C(=O)N[C@@H](Cc2ccc(O)cc2)C(=O)N[C@@H](C(C)C)C(=O)N2C[C@H](O)C[C@H]2C(=O)N[C@H]([C@@H](C)O)C(=O)N[C@@H]([C@@H](C)O)C(=O)N2CC[C@H](O)[C@H]2C(=O)N[C@@H]([C@H](O)CC(N)=O)C(=O)NCC(=O)N[C@H]([C@@H](C)O)C(=O)N[C@@H](CCCNC(=O)CN(C)C)C(=O)O1.Cl
Mus musculus [7]
  ED50: 9.1 mg/kg
Candida tropicalis [1]
  MIC: 0.78 µg/mL
Candida parapsilosis
  MIC: 0.39 µg/mL
Candida tropicalis [2]
  MIC: 0.78 µg/mL
Candida albicans [3]
  MIC: 0.39 µg/mL
Mus musculus [8]
  Ratio: 10.4
Mus musculus [4]
  Hemolysis: 10%
Candida albicans [5]
  MIC: 0.78 µg/mL
Aspergillus fumigatus
  MIC: 0.5 µg/mL
[6]
  MIC: 0.2 µg/mL

## CCCCCCCCCCCCC[C@@H]1CC(=O)N[C@H]([C@@H](C)O)C(=O)N[C@H](C)C(=O)N[C@@H](Cc2ccc(O)cc2)C(=O)N[C@@H](C(C)C)C(=O)N2C[C@H](O)C[C@H]2C(=O)N[C@H]([C@@H](C)O)C(=O)N[C@@H]([C@@H](C)O)C(=O)N2CC[C@H](O)[C@H]2C(=O)N[C@@H]([C@H](O)CC(N)=O)C(=O)NCC(=O)N[C@H]([C@@H](C)O)C(=O)N[C@@H](CCCNC(=O)CNC)C(=O)O1.Cl
Candida tropicalis [1]
  MIC: 0.78 µg/mL
Candida parapsilosis
  MIC: 0.39 µg/mL
Candida tropicalis [2]
  MIC: 0.78 µg/mL
Candida albicans [3]
  MIC: 0.2 µg/mL
Mus musculus [4]
  Hemolysis: 54%
Candida albicans [5]
  MIC: 0.39 µg/mL
[6]
  MIC: 0.39 µg/mL

## CCCCCCCCCCCCC[C@@H]1CC(=O)N[C@H]([C@@H](C)O)C(=O)N[C@H](C)C(=O)N[C@@H](Cc2ccc(O)cc2)C(=O)N[C@@H](C(C)C)C(=O)N2C[C@H](O)C[C@H]2C(=O)N[C@H]([C@@H](C)O)C(=O)N[C@@H]([C@@H](C)O)C(=O)N2CC[C@H](O)[C@H]2C(=O)N[C@@H]([C@H](O)CC(N)=O)C(=O)NCC(=O)N[C@H]([C@@H](C)O)C(=O)N[C@@H](CCCN)C(=O)O1.Cl
Mus musculus [7]
  ED50: 0.44 mg/kg
Candida tropicalis [1]
  MIC: 0.39 µg/mL
Candida parapsilosis
  MIC: 0.39 µg/mL
Candida tropicalis [2]
  MIC: 0.39 µg/mL
Candida albicans [3]
  MIC: 0.39 µg/mL
Mus musculus [4]
  Hemolysis: 100%
Candida albicans [5]
  MIC: 0.39 µg/mL
Aspergillus fumigatus
  MIC: 0.5 µg/mL
[6]
  MIC: 0.39 µg/mL

## C[C@@H]1[C@H](O)[C@@H](C)/C=C/C=C/C=C/C=C/C=C/C=C/C=C/[C@H](O[C@@H]2O[C@H](C)[C@@H](O)[C@H](N)[C@@H]2O)C[C@@H]2O[C@](O)(C[C@@H](O)C[C@@H](O)[C@H](O)CC[C@@H](O)C[C@@H](O)CC(=O)O[C@H]1C)C[C@H](O)[C@H]2C(=O)O [AMPHOTERICIN B]
Mus musculus [7]
  ED50: 0.132 mg/kg

## OC(Cn1cncn1)(Cn1cncn1)c1ccc(F)cc1F [FLUCONAZOLE]
Mus musculus [7]
  ED50: > 20 mg/kg

Reference: ChEMBL document CHEMBL1134430, “Synthesis and biological activity of novel macrocyclic antifungals: acylated conjugates of the ornithine moiety of the lipopeptidolactone FR901469” (2001)
